Laboratory results published in US10000454B2, “Antidiabetic tricyclic compounds” (Merck Sharp & Dohme Corp., priority 2014, dated 2018).

What was measured:
Human GPR40 [1] = target: T1, Human GPR40 (Homo sapiens, UniProt O14842); test: Inositol Phosphate Turnover (IP1) Assay; format: cell-based; design: expressed in transfected cells; host or cells: HEK cells (stably expressing the aequorin reporter); conditions: HEK cells stably expressing human GPR40, CisBio IP-One kit
Description: (§1) Human and mouse GPR40 stable cell-lines were generated in CHO cells stably expressing NFAT BLA (Beta-lactamase). A human GPR40 stable cell-line was generated in HER cells stably expressing the aequorin expressing reporter. The expression plasmids were transfected using lipofectamine (Life Technologies) following manufacturer's instructions. Stable cell-lines were generated following drug selection.
The assay is performed in 384-well format. HEK cells stably expressing human GPR40 are plated at 15,000 cells per well in growth medium (DMEM/10% fetal calf serum). Cell plates are then incubated 16 hours at 37 degrees in a 5% CO2 incubator.
Measurement of Inositol Phosphate Turnover (IP1) is performed using the CisBio IP-One kit (Part number 62IPAPEB). After the 16 hour incubation, the cells are washed with HEPES buffer and 10 ul of stimulation buffer (prepared as described in the kit) is added to each well. In a separate plate, compounds are diluted in DMSO (400-fold over the final concentration in the assay well) and 25 nl is acoustically transferred to the appropriate well in the assay cell plate. The plates are then incubated for 60 minutes at 37 degrees. 10 ul of detection buffer (also prepared as described in the IP-One kit) is added to each well and the plates are incubated for 60 minutes in the dark. The plates are then read in a Perkin Elmer EnVision or equivalent reader able to measure FRET. Fluorescent ratio of emission at 665 and 620 nm is then converted to IP1 concentration by back calculating from an IP1 standard curve prepared at the time of the assay.

Human GPR40 [2] = target: T1, Human GPR40; test: FLIPR assay, agonist-induced calcium mobilization; format: cell-based; design: expressed in transfected cells; conditions: GPR40/CHO NFAT BLA cells
Description: as §1
FLIPR (Fluorimetric Imaging Plate Reader, Molecular Devices) assays were performed to measure agonist-induced calcium mobilization of the stable clones. For the FLIPR assay, one day before assay, GPR40/CHO NFAT BLA cells were seeded into black-wall-clear-bottom 384-well plates (Costar) at 1.4×10e4 cells/20 μL medium/well. The cells were incubated with 20 μl/well of the assay buffer (HMS, 0.1% BSA, 20 mM HEPES, 2.5 mM probenecid, pH 7.4) containing 8 μM fluo-4, AM, 0.08% pluronic acid at room temperature for 100 minutes. Fluorescence output was measured using FLIPR. Compounds were dissolved in DMSO and diluted to desired concentrations with assay buffer. 13.3 μL/well of compound solution was added.

T1 sequence (O14842 whole entry): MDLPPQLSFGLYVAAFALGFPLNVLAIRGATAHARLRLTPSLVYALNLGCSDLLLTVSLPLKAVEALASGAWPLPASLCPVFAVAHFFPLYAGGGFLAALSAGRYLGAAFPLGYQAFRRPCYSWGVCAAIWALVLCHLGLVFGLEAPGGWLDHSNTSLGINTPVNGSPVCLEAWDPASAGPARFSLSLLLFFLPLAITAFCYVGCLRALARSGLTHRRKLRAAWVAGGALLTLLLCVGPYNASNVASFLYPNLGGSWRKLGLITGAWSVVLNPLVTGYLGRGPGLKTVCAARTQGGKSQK

Row | SMILES | EC50 (Human GPR40 [1]) | EC50 (Human GPR40 [2])
1 | O=C1CC(c2ccccc2C(F)(F)F)c2cc(COc3cc4c(cn3)[C@H]3[C@@H](C4)[C@@H]3C(=O)O)ccc21 (stereo partly drawn) [Example 2, (5aR,6S,6aS)-3-((1-oxo-3-(2-(trifluoromethyl)-phenyl)-2,3-dihydro-1H-inden-5-yl)methoxy)-5,5a,6,6a-tetrahydro-cyclopropa[4,5]cyclopenta [1,2-c]pyridine-6-carboxylic acid] | 0.0474 µM | 0.0505 µM
2 | CC1(C)CC(c2ccccc2C(F)(F)F)c2cc(COc3cc4c(cn3)[C@H]3[C@@H](C4)[C@@H]3C(=O)O)ccc21 (stereo partly drawn) [Example 3, (5aR,6S,6aS)-3-((1,1-dimethyl-3-(2-(trifluoromethyl)phenyl)-2,3-dihydro-1H-inden-5-yl)methoxy)-5,5a,6,6a-tetrahydrocyclopropa[4,5]cyclopenta[1,2-c]pyridine-6-carboxylic acid] | 0.769 µM | 0.00928 µM
3 | CC1(C)C=C(c2ccccc2C(F)(F)F)c2cc(COc3cc4c(cn3)[C@H]3[C@@H](C4)[C@@H]3C(=O)O)ccc21 [Example 4] | 0.018 µM | 0.0137 µM
4 | CC1CC(c2ccccc2C(F)(F)F)c2cc(COc3cc4c(cn3)[C@H]3[C@@H](C4)[C@@H]3C(=O)O)ccc21 (stereo partly drawn) [Example 5, (5aR,6S,6aS)-3-((1-methyl-3-(2-(trifluoromethyl)phenyl)-2,3-dihydro-1H-inden-5-yl)methoxy)-5,5a,6,6a-tetrahydrocyclopropa[4,5]cyclopenta[1,2-c]pyridine-6-carboxylic acid] | 0.0216 µM | 0.0208 µM
5 | O=C(O)[C@H]1[C@@H]2Cc3cc(OCc4ccc5c(c4)C(c4ccccc4C(F)(F)F)CC54CCC4)ncc3[C@@H]21 (stereo partly drawn) [Example 6, (5aR,6S,6aS)-3-((3′-(2-(trifluoromethyl)phenyl)-2′,3′-dihydrospiro[cyclobutane-1,1′-inden]-5′-yl)methoxy)-5,5a,6,6a-tetrahydrocyclopropa[4,5]cyclopenta[1,2-c]pyridine-6-carboxylic acid] | 0.0226 µM | 0.0229 µM
6 | O=C(O)[C@H]1[C@@H]2Cc3cc(OCc4ccc5c(c4)C(c4ccccc4C(F)(F)F)CC54COC4)ncc3[C@@H]21 (stereo partly drawn) [Example 7, (5aR,6S,6aS)-3-((3-(2-(trifluoromethyl)phenyl)-2,3-dihydrospiro[indene-1,3′-oxetan]-5-yl)methoxy)-5,5a,6,6a-tetrahydrocyclopropa[4,5]cyclopenta[1,2-c]pyridine-6-carboxylic acid] | 0.0353 µM | 0.0329 µM
7 | CC1(C)OCC2(CO1)CC(c1ccccc1C(F)(F)F)c1cc(COc3cc4c(cn3)[C@H]3[C@@H](C4)[C@@H]3C(=O)O)ccc12 (stereo partly drawn) [Example 8, (5aR,6S,6aS)-3-((2,2-dimethyl-3′-(2-(trifluoromethyl)phenyl)-2′,3′-dihydrospiro[[1,3]dioxane-5,1′-inden]-5′-yl)methoxy)-5,5a,6,6a-tetrahydrocyclopropa[4,5]cyclopenta[1,2-c]pyridine-6-carboxylic acid] | 0.0211 µM | 0.0123 µM
8 | CC1(C)CC(c2ccccc2)c2cc(COc3cc4c(cn3)[C@H]3[C@@H](C4)[C@@H]3C(=O)O)ccc21 (stereo partly drawn) [Example 9, (5aR,6S,6aS)-3-((1,1-dimethyl-3-phenyl-2,3-dihydro-1H-inden-5-yl)methoxy)-5,5a,6,6a-tetrahydrocyclopropa[4,5]cyclopenta[1,2-c]pyridine-6-carboxylic acid] | 0.0224 µM | 0.0169 µM
9 | CC1(C)CC(c2c(F)cccc2F)c2cc(COc3cc4c(cn3)[C@H]3[C@@H](C4)[C@@H]3C(=O)O)ccc21 (stereo partly drawn) [Example 10, (5aR,6S,6aS)-3-((3-(2,6-difluorophenyl)-1,1-dimethyl-2,3-dihydro-1H-inden-5-yl)methoxy)-5,5a,6,6a-tetrahydro-cyclopropa[4,5]cyclopenta [1,2-c]pyridine-6-carboxylic acid] | 0.0389 µM | 0.0049 µM
10 | CC1(C)CC(c2ccccc2Cl)c2cc(COc3cc4c(cn3)[C@H]3[C@@H](C4)[C@@H]3C(=O)O)ccc21 (stereo partly drawn) [Example 11, (5aR,6S,6aS)-3-((3-(2-chlorophenyl)-1,1-dimethyl-2,3-dihydro-1H-inden-5-yl)methoxy)-5,5a,6,6a-tetrahydro-cyclopropa[4,5]cyclopenta [1,2-c]pyridine-6-carboxylic acid] | 0.0351 µM | 0.0178 µM
11 | CC1(C)CC(c2ccccc2S(C)(=O)=O)c2cc(COc3cc4c(cn3)[C@H]3[C@@H](C4)[C@@H]3C(=O)O)ccc21 (stereo partly drawn) [Example 13, (5aR,6S,6aS)-3-((1,1-dimethyl-3-(2-(methyl-sulfonyl)phenyl)-2,3-dihydro-1H-inden-5-yl)methoxy)-5,5a,6,6a-tetrahydrocyclopropa[4,5] cyclopenta[1,2-c]pyridine-6-carboxylic acid] | 0.0406 µM | 0.0226 µM
12 | COc1ncccc1C1CC(C)(C)c2ccc(COc3cc4c(cn3)[C@H]3[C@@H](C4)[C@@H]3C(=O)O)cc21 (stereo partly drawn) [Example 14, (5aR,6S,6aS)-3-((3-(2-methoxypyridin-3-yl)-1,1-dimethyl-2,3-dihydro-1H-inden-5-yl)methoxy)-5,5a,6,6a-tetrahydro-cyclopropa[4,5]cyclopenta [1,2-c]pyridine-6-carboxylic acid] | 0.0218 µM | 0.0116 µM
13 | COc1nccc(C)c1C1CC(C)(C)c2ccc(COc3cc4c(cn3)[C@H]3[C@@H](C4)[C@@H]3C(=O)O)cc21 (stereo partly drawn) [Example 15, (5aR,6S,6aS)-3-((3-(2-methoxy-4-methylpyridin-3-yl)-1,1-dimethyl-2,3-dihydro-1H-inden-5-yl)methoxy)-5,5a,6,6a-tetrahydrocyclopropa[4,5] cyclopenta[1,2-c]pyridine-6-carboxylic acid] | 0.00777 µM | 0.0086 µM
14 | Cn1cnc2cccc(C3CC(C)(C)c4ccc(COc5cc6c(cn5)[C@H]5[C@@H](C6)[C@@H]5C(=O)O)cc43)c21 (stereo partly drawn) [Example 16, (5aR,6S,6aS)-3-((1,1-dimethyl-3-(1-methyl-1H-benzo[d]imidazol-7-yl)-2,3-dihydro-1H-inden-5-yl)methoxy)-5,5a,6,6a-tetrahydrocyclopropa[4,5] cyclopenta[1,2-c]pyridine-6-carboxylic acid] | 0.0277 µM | 0.00729 µM
15 | CC1(C)CC(c2ccccc2F)c2cc(COc3cc4c(cn3)[C@H]3[C@@H](C4)[C@@H]3C(=O)O)ccc21 (stereo partly drawn) [Example 17, (5aR,6S,6aS)-3-((1,1-dimethyl-3-(2-fluorophenyl)-2,3-dihydro-1H-inden-5-yl)methoxy)-5,5a,6,6a-tetrahydrocyclopropa[4,5] cyclopenta[1,2-c]pyridine-6-carboxylic acid] | 0.0437 µM | 0.0217 µM
16 | O=C(O)[C@H]1[C@@H]2Cc3cc(OCc4ccc5c(c4)C(c4ccccc4C(F)(F)F)CC5c4ccccc4)ncc3[C@@H]21 (stereo partly drawn) [Example 18, (5aR,6S,6aS)-3-((1-phenyl-3-(2-(trifluoromethyl)phenyl)-2,3-dihydro-1H-inden-5-yl)methoxy)-5,5a,6,6a-tetrahydrocyclopropa[4,5]cyclopenta[1,2-c]pyridine-6-carboxylic acid] | 0.0246 µM | 0.0132 µM
17 | O=C(O)[C@H]1[C@@H]2Cc3cc(OCc4ccc5c(c4)C(c4ccccc4C(F)(F)F)CC5c4ccccc4)ncc3[C@@H]21 (stereo partly drawn) [Example 19, (5aR,6S,6aS)-3-((1-phenyl-3-(2-(trifluoromethyl)phenyl)-2,3-dihydro-1H-inden-5-yl)methoxy)-5,5a,6,6a-tetrahydrocyclopropa[4,5]cyclopenta[1,2-c]pyridine-6-carboxylic acid] | 0.0175 µM | 0.0155 µM
